From patent US20140119985A1, “Photodynamic Control of Microbial Growth on Surfaces” (ORTNER CLEANROOM ENGINEERING GMBH, priority 2010, published 2014)
Like-named read-outs stand apart in the source and are kept apart here.

Assays:
Klebsiella pneumoniae = settings: LED 623 nm
Experimental: (§1) Typically, 3 μl of a growing cell culture having a titer of 7×10^7 cfu/ml were used in contact assays, whereas 50 μl were employed in plating assays. In some assays, the cell cultures were employed in a dilution of 10^−1, 10^−2, 10^−3, 10^−4, and 10^−5, respectively.
For contact assays, pieces of the textile fabric having a defined size of 1 cm×1 cm were employed.
(§2) In contact assays, the distance between the radiation source and the piece of textile fabric was in a range between 10 cm and 60 cm.
In brief, the contact assays were performed as follows: Pieces of a textile fabric (ION-NOSTAT VI.2) having a defined size (1×1 cm) were immersed for 3 h in an aqueous solution of reactive dye, such as methylene blue (100 μg/ml each). After complete drying of the textile pieces, 3 μl of a growing cell culture were added to the surface of the textile pieces. The pieces were irradiated with appropriate radiation (light) for a given period of time. Then, the textile pieces were contacted with agar plates; and the plates were incubated at 37° C. for 24 h.
The contact assay was performed as described in Example 1 using an aqueous solution of diemethyl methylene blue (DMMB) and new methylene blue (NMB), respectively (100 μg/ml each) as well as a combination thereof. Staphylococcus aureus and Klebsiella pneumoniae were employed as test organisms. Irradiation was accomplished by means of a LED (High Power Alustar 3 W 10° LED×ON Rot, from Conrad, Hirschau, Germany) at a wavelength of 623 nm. The distance between the LED and the textile pieces was 50 cm.

Staphylococcus aureus [1] = assay: Contact assay on dye-treated textile pieces; format: cell-based; settings: for cell growth: irradiation 1 min, distance 50 cm, about 10^4 cfu; for cfu calculated per ml cell culture: plates incubated 24 h; for number of colonies upon irradiation: distance 30 cm
Candida albicans [2] = assay: Contact assay on dye-treated textile pieces; format: cell-based; settings: irradiation 1 min, 2 min, 3 min, laser 15 mW, 532 nm
Experimental: as §1
(§3) The textile fabric employed was a clean room textile, in particular ION-NOSTAT VI.2 (Dastex Reinraumzubehör, Muggensturm, Germany). For contact assays, pieces of the textile fabric having a defined size of 1 cm×1 cm were employed.
as §2
(§4) After complete drying of the textile pieces, 3 μl of a growing cell culture were added to the surface of the textile pieces. The pieces were irradiated with appropriate radiation (light) for a given period of time. Then, the textile pieces were contacted with agar plates; and the plates were incubated at 37° C. for 24 h.

[3] = tested on: Stenotrophomonas maltophilia; settings: dilution 10^−5
Experimental: as §1
(§5) Methylene blue (MB), dimethyl methylene blue (DMMB), new metylene blue (NMB), and toluidine blue (TB) were provided as solutions having a dye concentration of 100 μg/ml. 50 μl of either solution were used for plating assays.
(§6) In brief, the plating assays were performed as follows: In a well of a (96 well) microtiter plate 50 μl of a growing cell culture were mixed with aqueous solution of reactive dye, such as methylene blue (100 μg/ml each). The samples were irradiated with appropriate radiation (light) for a given period of time. The samples (100 μl) were plated on agar plates. The plates were incubated at 37° C. for 24 h.

Candida albicans [4] = settings: dilution 10^−4, incubation period two days longer as compared to control
Experimental: as §1, §5, §6

Staphylococcus aureus [5] = settings: for colony forming units obtained: incubation with dye (3-5 min) without irradiation; for colonies detected: irradiation 3 min
[6] = tested on: Stenotrophomonas maltophilia; assay: Contact assay on dye-treated textile pieces; format: cell-based; settings: for cfu calculated per ml cell culture: plates incubated 48 h
Experimental: as §1, §3, §2, §4

[7] = 1 × pre-irradiation (3 min) of textile before contact with cells
[8] = 2 × pre-irradiation (3 min each, 90 min between) of textile before contact with cells
[9] = Control (dye, no irrad.), dilution 10^−5
[10] = Irradiation for 3 min, dilution 10^−5
[11] = irradiation 3 min, laser 15 mW, 532 nm
[12] = textile immersed in dye 100 μg/ml, irradiation 3 min, laser 15 mW, 532 nm
[13] = textile incubated with dye 100 μg/ml, no irradiation
[14] = black light lamp, irradiation for 30 s
[15] = black light lamp, irradiation for 3 min
[16] = mercury lamp, irradiation for 30 s
[17] = mercury lamp, irradiation for 3 min
[18] = incubation with dye, mercury lamp 515-560 nm

For Cc1cc(N(C)C)cc2[s+]c3cc(N(C)C)cc(C)c3nc12.[Cl-] [dimethyl methylene blue, 3,7-bis(dimethylamino)-1,9-dimethyldiphenothiazin-5-ium chloride], the “inhibition of cell growth” value (Klebsiella pneumoniae; about 10^4 cfu) was “significant inhibition of cell growth”, the cell numbers (Klebsiella pneumoniae; after 5 min of irradiation) was “noticeable reduction of cell numbers” and the “reduction of cell numbers” value (Klebsiella pneumoniae; irradiation period of 10 min) was “further increase”. The cell growth (Staphylococcus aureus [1]; LED 623 nm) was “no cell growth could be detected”, the “dye released from stained textile pieces” value (single immersion with acetone, acetic acid, and ethanol, data not shown) was “Trace amounts” and the “dye released from stained textile pieces” value (two cycles of immersion in 99% acetone, 99% acetic acid, 1 M NaOH, 99% ethanol, stained with 100 mg/l) was “No dye”.
With CN(C)c1ccc2nc3ccc(N(C)C)cc3[s+]c2c1.[Cl-] [methylene blue, 3,7-bis(dimethylamino)-phenothiazin-5-ium chloride] the “cfu calculated per ml cell culture” value (Staphylococcus aureus [1]; [7]) was 0 cfu/ml, the “cfu calculated per ml cell culture” value (Staphylococcus aureus [1]; [8]) was 0 cfu/ml and the “cfu calculated per ml cell culture” value (Staphylococcus aureus [1]; [9]) was 1.7 × 10^8 cfu/ml. For the same molecule, the “cfu calculated per ml cell culture” value (Staphylococcus aureus [1]; [10]) was 0 cfu/ml, the “number of colonies upon irradiation” value (Staphylococcus aureus [1]; irradiation 2 min with LED1, 620-640 nm) was “significant reduction of the number of colonies” and the “number of colonies upon irradiation” value (Staphylococcus aureus [1]; irradiation 2 min with LED2, 620-640 nm) was “significant reduction of the number of colonies”. For the same molecule, the growth inhibition (Staphylococcus aureus [1]; [11]) was “complete”, the “colonies (cfu) after contact sampling” value (Staphylococcus aureus [1]; [12]) was “no colonies” and the “growth after contact sampling without irradiation” value (Staphylococcus aureus [1]; [13]) was “lawn of bacteria”. The “microbial growth upon irradiation” value (Candida albicans [2]) was “significant reduction of microbial growth”, the cfu per ml [3, 14] was 2.9 × 10^7 cfu/ml and the cfu per ml [3, 15] was 0 cfu/ml. The cfu per ml [3, 16] was 1.4 × 10^7 cfu/ml, the cfu per ml [3, 17] was 0 cfu/ml and the cfu per ml (Candida albicans [4]; [14]) was 2.7 × 10^7 cfu/ml*. For the same molecule, the cfu per ml (Candida albicans [4]; [15]) was 2.3 × 10^7 cfu/ml*, the cfu per ml (Candida albicans [4]; [16]) was 2.3 × 10^7 cfu/ml* and the cfu per ml (Candida albicans [4]; [17]) was 2.2 × 10^7 cfu/ml*. For the same molecule, the cfu per ml (Staphylococcus aureus [5]; black light lamp, irradiation for 30 s, dilution 10^−5) was 1.2 × 10^8 cfu/ml, the cfu per ml (Staphylococcus aureus [5]; black light lamp, irradiation for 3 min, dilution 10^−5) was 1.5 × 10^7 cfu/ml and the “colony forming units obtained” value (Staphylococcus aureus [5]) was 177 cfu. For the same molecule, the colonies detected (Staphylococcus aureus [5]; [18]) was “one colony”, the cfu per ml (Staphylococcus aureus [5]; irradiation 2 min with LED1, 620-640 nm, dilution 10^−5) was 1.2×10^7 cfu/ml and the cfu per ml (Staphylococcus aureus [5]; irradiation 2 min with LED2, 620-640 nm, dilution 10^−5) was 2.0×10^6 cfu/ml. The colonies detected (Staphylococcus aureus [5]; black light lamp 350-370 nm, dilution 10^−5) was 15, the colonies detected (Staphylococcus aureus [5]; mercury lamp 515-560 nm, dilution 10^−5) was “No colonies” and the cfu per ml (Staphylococcus aureus [5]; mercury lamp, irradiation for 30 s, dilution 10^−5) was 2.1 × 10^7 cfu/ml. For the same molecule, the cfu per ml (Staphylococcus aureus [5]; mercury lamp, irradiation for 3 min, dilution 10^−5) was 1.0 × 10^5 cfu/ml, the “cfu calculated per ml cell culture” value [6, 7] was 1.0 × 10^5 cfu/ml and the “cfu calculated per ml cell culture” value [6, 8] was 1.0 × 10^5 cfu/ml. For the same molecule, the “cfu calculated per ml cell culture” value [6, 9] was 1.1 × 10^8 cfu/ml, the “cfu calculated per ml cell culture” value [6, 10] was 1.0 × 10^5 cfu/ml and the growth inhibition [6, 11] was “almost complete”. For the same molecule, the “colonies (cfu) after contact sampling” value [6, 12] was “two colonies” and the “growth after contact sampling without irradiation” value [6, 13] was “lawn of bacteria”.
For CCNc1cc2[s+]c3cc(NCC)c(C)cc3nc2cc1C.[Cl-] [new methylene blue, 3,7-bis(ethylamino)-2,8-dimethylphenaza-thionium chloride], the cell growth (Staphylococcus aureus [1]; LED 623 nm) was “only a small reduction of cell growth” and the “reduction of cell growth” value (Staphylococcus aureus [1]; LED 623 nm, irradiation for 2 min and 5 min, data not shown) was “more than 50%”.
For Cc1cc2nc3ccc(=[N+](C)C)cc-3sc2cc1N.[Cl-] [toluidine blue], the “cfu calculated per ml cell culture” value (Staphylococcus aureus [1]; [7]) was 9.0 × 10^4 cfu/ml, the “cfu calculated per ml cell culture” value (Staphylococcus aureus [1]; [8]) was 5.0 × 10^4 cfu/ml and the “cfu calculated per ml cell culture” value (Staphylococcus aureus [1]; [9]) was 8.9 × 10^6 cfu/ml. For the same molecule, the “cfu calculated per ml cell culture” value (Staphylococcus aureus [1]; [10]) was 0 cfu/ml, the “colony forming units obtained” value (Staphylococcus aureus [5]) was 89 cfu and the colonies detected (Staphylococcus aureus [5]; [18]) was “no colony”.
